Results taken from paper PMC9447987, “Long-term memory CD8^+ T cells specific for SARS-CoV-2 in individuals who received the BNT162b2 mRNA vaccine” (Nature Communications, 2022).
Like-named read-outs stand apart in the source and are kept apart here.

Tests used:
[1] = system: HLA-A*24:02-peptide complexes; assay: Peptide–MHC Complex Dissociation Assay using RMA-S-A2402 cells; format: binding, human; settings: for % Mean Fluoresence: Fig.7d; for stability of the HLA-A*24:02-peptide complex (in words): RMA-S-A2402 cells, 10 μM peptide, 0, 1, 2 and 4 h
[2] = system: HLA-A*24:02-restricted CD8+ T cells; format: cell-based, human; settings: for number of S-QI9-specific T cell populations that effectively recognized the peptide / number of individuals whose S-QI9-specific T cells moderately recognized the peptide / number of individuals whose S-QI9-specific T cells uniformly recognized variant peptide and S-QI9 / number of individuals whose S-QI9-specific bulk T cells exhibited no or very weak recognition: 13 HLA-A*24:02+ individuals, C1R-A2402 pre-pulsed with 1 nM peptide
HLA-A*24:02 = HLA-A*24:02 (Homo sapiens, UniProt P04439, D101N/D140Y/D185E/E176V/E190D/F33S/G103R/G107R/I119L/I121M/I306V/K335N/L105A/L180Q/L300P/N151K/N90K/Q86E/Q94H/R106L/R138H/R89G/T104I/T345S/V100E/W191G/Y123F); assay: HLA stabilization assay using RMA-S-A2402 cells; format: binding; settings: for MFI, HLA-A2402 (APC), representative staining: RMA-S-A2402 cells; for affinity for HLA-A*24:02, times weaker than that of S-QI9: approximately, peptide 0.03 to 10 μM
[3] = post-incubation 0 hour, replicate 1
[4] = post-incubation 0 hour, replicate 2
[5] = post-incubation 0 hour, replicate 3
[6] = post-incubation 1 hour, replicate 1
[7] = post-incubation 1 hour, replicate 2
[8] = post-incubation 1 hour, replicate 3
[9] = post-incubation 2 hour, replicate 1
[10] = post-incubation 2 hour, replicate 2
[11] = post-incubation 2 hour, replicate 3
[12] = post-incubation 4 hour, replicate 1
[13] = post-incubation 4 hour, replicate 2
[14] = post-incubation 4 hour, replicate 3
[15] = Suppl. Fig. 3d (for Fig. 7c), peptide(-) 11.3, 26 °C (Maximum) 24.0
[16] = convalescent donor C2, 45.290 weeks since PCR-confirmed diagnosis, peptide-pulsed C1R-A2402
[17] = convalescent donor C3, 2.430 weeks since PCR-confirmed diagnosis, peptide-pulsed C1R-A2402
[18] = convalescent donor C4, 35.000 weeks since PCR-confirmed diagnosis, peptide-pulsed C1R-A2402
[19] = convalescent donor C5, 41.430 weeks since PCR-confirmed diagnosis, peptide-pulsed C1R-A2402
[20] = convalescent donor C6, 20.000 weeks since PCR-confirmed diagnosis, peptide-pulsed C1R-A2402
[21] = convalescent donor C7, 21.710 weeks since PCR-confirmed diagnosis, peptide-pulsed C1R-A2402
[22] = convalescent donor C8, 47.860 weeks since PCR-confirmed diagnosis, peptide-pulsed C1R-A2402
[23] = convalescent donor C9, 21.860 weeks since PCR-confirmed diagnosis, peptide-pulsed C1R-A2402
[24] = convalescent donor C10, 24.570 weeks since PCR-confirmed diagnosis, peptide-pulsed C1R-A2402
[25] = convalescent donor C11, 24.290 weeks since PCR-confirmed diagnosis, peptide-pulsed C1R-A2402
[26] = vaccinated donor V1, 19.000 weeks since 2nd dose, C1R-A2402 pre-pulsed with 1 μM peptide
[27] = vaccinated donor V2, 9.570 weeks since 2nd dose, C1R-A2402 pre-pulsed with 1 μM peptide
[28] = vaccinated donor V3, 8.860 weeks since 2nd dose, C1R-A2402 pre-pulsed with 1 μM peptide
[29] = vaccinated donor V4, 10.430 weeks since 2nd dose, C1R-A2402 pre-pulsed with 1 μM peptide
[30] = vaccinated donor V5, 10.570 weeks since 2nd dose, C1R-A2402 pre-pulsed with 1 μM peptide
[31] = vaccinated donor V6, 9.570 weeks since 2nd dose, C1R-A2402 pre-pulsed with 1 μM peptide
[32] = vaccinated donor V7, 10.140 weeks since 2nd dose, C1R-A2402 pre-pulsed with 1 μM peptide
[33] = vaccinated donor V8, 9.860 weeks since 2nd dose, C1R-A2402 pre-pulsed with 1 μM peptide
[34] = vaccinated donor V9, 20.570 weeks since 2nd dose, C1R-A2402 pre-pulsed with 1 μM peptide
[35] = vaccinated donor V10, 2.000 weeks since 2nd dose, C1R-A2402 pre-pulsed with 1 μM peptide
[36] = vaccinated donor V11, 1.430 weeks since 2nd dose, C1R-A2402 pre-pulsed with 1 μM peptide
[37] = vaccinated donor V12, 1.000 weeks since 2nd dose, C1R-A2402 pre-pulsed with 1 μM peptide
[38] = vaccinated donor V13, 9.000 weeks since 2nd dose, C1R-A2402 pre-pulsed with 1 μM peptide
[39] = vaccinated donor V14, 2.000 weeks since 2nd dose, C1R-A2402 pre-pulsed with 1 μM peptide
[40] = vaccinated donor V15, 6.860 weeks since 2nd dose, C1R-A2402 pre-pulsed with 1 μM peptide
[41] = vaccinated donor V16, 8.860 weeks since 2nd dose, C1R-A2402 pre-pulsed with 1 μM peptide
[42] = vaccinated donor V17, 4.140 weeks since 2nd dose, C1R-A2402 pre-pulsed with 1 μM peptide
[43] = Suppl. Fig. 3b (for Fig. 4a, 4b), peptide(-) 14.8, 26 °C (Maximum) 32.7

Sequence: MYVKWPWYV [HKU1]
- % Mean Fluoresence [1, 3]: 100%
- % Mean Fluoresence [1, 4]: 100%
- % Mean Fluoresence [1, 5]: 100%
- % Mean Fluoresence [1, 6]: 69.2%
- % Mean Fluoresence [1, 7]: 72.5%
- % Mean Fluoresence [1, 8]: 68.4%
- % Mean Fluoresence [1, 9]: 38.6%
- % Mean Fluoresence [1, 10]: 43%
- % Mean Fluoresence [1, 11]: 37.4%
- % Mean Fluoresence [1, 12]: 12.8%
- % Mean Fluoresence [1, 13]: 14%
- % Mean Fluoresence [1, 14]: 10%
- stability of the HLA-A*24:02-peptide complex (in words) [1]: weaker than that of the HLA-A*24:02-S-QI9 peptide complex
- sensitivity of S-QI9-specific T cells for the peptide compared with the SARS-CoV-2 S-QI9 epitope (in words) [2]: higher sensitivity
- number of S-QI9-specific T cell populations that effectively recognized the peptide [2]: 13
- MFI, HLA-A2402 (APC), representative staining (HLA-A*24:02; [15]): 49.8
- affinity for HLA-A*24:02, times weaker than that of S-QI9 (HLA-A*24:02): 10–30 times

Sequence: NYIKWPWWV [NL63]
- % Mean Fluoresence [1, 3]: 100%
- % Mean Fluoresence [1, 4]: 100%
- % Mean Fluoresence [1, 5]: 100%
- % Mean Fluoresence [1, 6]: 18.2%
- % Mean Fluoresence [1, 7]: 44%
- % Mean Fluoresence [1, 8]: 7.4%
- % Mean Fluoresence [1, 9]: -22.6%
- % Mean Fluoresence [1, 10]: 35.4%
- % Mean Fluoresence [1, 11]: -0.6%
- % Mean Fluoresence [1, 12]: 18.3%
- % Mean Fluoresence [1, 13]: -7.8%
- % Mean Fluoresence [1, 14]: 2%
- stability of the HLA-A*24:02-peptide complex (in words) [1]: substantially weaker
- sensitivity of S-QI9-specific T cells for the peptide compared with the SARS-CoV-2 S-QI9 epitope (in words) [2]: much lower sensitivity
- number of individuals whose S-QI9-specific T cells moderately recognized the peptide [2]: 7
- number of individuals whose S-QI9-specific T cells uniformly recognized variant peptide and S-QI9 [2]: 2
- number of individuals whose S-QI9-specific bulk T cells exhibited no or very weak recognition [2]: 4
- affinity for HLA-A*24:02 (in words) (HLA-A*24:02): substantially weaker
- MFI, HLA-A2402 (APC), representative staining (HLA-A*24:02; [15]): 16.2

Sequence: TYIKWPWWV [229E]
- % Mean Fluoresence [1, 3]: 100%
- % Mean Fluoresence [1, 4]: 100%
- % Mean Fluoresence [1, 5]: 100%
- % Mean Fluoresence [1, 6]: 44.6%
- % Mean Fluoresence [1, 7]: 48.7%
- % Mean Fluoresence [1, 8]: 47.1%
- % Mean Fluoresence [1, 9]: 19.2%
- % Mean Fluoresence [1, 10]: 17%
- % Mean Fluoresence [1, 11]: 16.5%
- % Mean Fluoresence [1, 12]: -1.1%
- % Mean Fluoresence [1, 13]: -0.2%
- % Mean Fluoresence [1, 14]: -1.9%
- stability of the HLA-A*24:02-peptide complex (in words) [1]: weaker than that of the HLA-A*24:02-HKU1 or HLA-A*24:02-OC43 peptide complexes
- sensitivity of S-QI9-specific T cells for the peptide compared with the SARS-CoV-2 S-QI9 epitope (in words) [2]: much lower sensitivity
- number of individuals whose S-QI9-specific T cells moderately recognized the peptide [2]: 7
- number of individuals whose S-QI9-specific T cells uniformly recognized variant peptide and S-QI9 [2]: 2
- number of individuals whose S-QI9-specific bulk T cells exhibited no or very weak recognition [2]: 4
- MFI, HLA-A2402 (APC), representative staining (HLA-A*24:02; [15]): 41.6

Sequence: YYHKNNKSW [S-YW9]
- IFNg-producing cells among CD8 T cells (%) [2, 16]: 0.653%
- IFNg-producing cells among CD8 T cells (%) [2, 17]: 0.000%
- IFNg-producing cells among CD8 T cells (%) [2, 18]: 0.000%
- IFNg-producing cells among CD8 T cells (%) [2, 19]: 0.000%
- IFNg-producing cells among CD8 T cells (%) [2, 20]: 0.000%
- IFNg-producing cells among CD8 T cells (%) [2, 21]: 0.140%
- IFNg-producing cells among CD8 T cells (%) [2, 22]: 0.310%
- IFNg-producing cells among CD8 T cells (%) [2, 23]: 0.000%
- IFNg-producing cells among CD8 T cells (%) [2, 24]: 0.000%
- IFNg-producing cells among CD8 T cells (%) [2, 25]: 0.550%
- IFNg-producing cells among CD8 T cells (%) [2, 26]: 0.268%
- IFNg-producing cells among CD8 T cells (%) [2, 27]: 0%
- IFNg-producing cells among CD8 T cells (%) [2, 28]: 0.343%
- IFNg-producing cells among CD8 T cells (%) [2, 29]: 0%
- IFNg-producing cells among CD8 T cells (%) [2, 30]: 0.139%
- IFNg-producing cells among CD8 T cells (%) [2, 31]: 0.061%
- IFNg-producing cells among CD8 T cells (%) [2, 32]: 0.182%
- IFNg-producing cells among CD8 T cells (%) [2, 33]: 0.035%
- IFNg-producing cells among CD8 T cells (%) [2, 34]: 0.232%
- IFNg-producing cells among CD8 T cells (%) [2, 35]: 0%
- IFNg-producing cells among CD8 T cells (%) [2, 36]: 0.769%
- IFNg-producing cells among CD8 T cells (%) [2, 37]: 0%
- IFNg-producing cells among CD8 T cells (%) [2, 38]: 0%
- IFNg-producing cells among CD8 T cells (%) [2, 39]: 0%
- IFNg-producing cells among CD8 T cells (%) [2, 40]: 0.709%
- IFNg-producing cells among CD8 T cells (%) [2, 41]: 0.019%
- IFNg-producing cells among CD8 T cells (%) [2, 42]: 0.154%
- MFI, HLA-A2402 (APC), representative staining (HLA-A*24:02; [43]): 10.2
- binding to HLA-A*24:02 (in words) (HLA-A*24:02; […], 16 peptides tested at 100 μM): did not bind

Sequence: YYVGYLQPRTF [S-YF11]
- IFNg-producing cells among CD8 T cells (%) [2, 16]: 0.461%
- IFNg-producing cells among CD8 T cells (%) [2, 17]: 0.120%
- IFNg-producing cells among CD8 T cells (%) [2, 18]: 0.300%
- IFNg-producing cells among CD8 T cells (%) [2, 19]: 0.738%
- IFNg-producing cells among CD8 T cells (%) [2, 20]: 0.200%
- IFNg-producing cells among CD8 T cells (%) [2, 21]: 0.450%
- IFNg-producing cells among CD8 T cells (%) [2, 22]: 0.930%
- IFNg-producing cells among CD8 T cells (%) [2, 23]: 0.000%
- IFNg-producing cells among CD8 T cells (%) [2, 24]: 0.090%
- IFNg-producing cells among CD8 T cells (%) [2, 25]: 0.000%
- IFNg-producing cells among CD8 T cells (%) [2, 26]: 0.469%
- IFNg-producing cells among CD8 T cells (%) [2, 27]: 0.861%
- IFNg-producing cells among CD8 T cells (%) [2, 28]: 0.031%
- IFNg-producing cells among CD8 T cells (%) [2, 29]: 0%
- IFNg-producing cells among CD8 T cells (%) [2, 30]: 0%
- IFNg-producing cells among CD8 T cells (%) [2, 31]: 0.019%
- IFNg-producing cells among CD8 T cells (%) [2, 32]: 0%
- IFNg-producing cells among CD8 T cells (%) [2, 33]: 0%
- IFNg-producing cells among CD8 T cells (%) [2, 34]: 0%
- IFNg-producing cells among CD8 T cells (%) [2, 35]: 0%
- IFNg-producing cells among CD8 T cells (%) [2, 36]: 0%
- IFNg-producing cells among CD8 T cells (%) [2, 37]: 0%
- IFNg-producing cells among CD8 T cells (%) [2, 38]: 0.015%
- IFNg-producing cells among CD8 T cells (%) [2, 39]: 0%
- IFNg-producing cells among CD8 T cells (%) [2, 40]: 0.234%
- IFNg-producing cells among CD8 T cells (%) [2, 41]: 0.141%
- IFNg-producing cells among CD8 T cells (%) [2, 42]: 0.134%
- MFI, HLA-A2402 (APC), representative staining (HLA-A*24:02; [43]): 26.7

Sequence: YYVKWPWYV [OC43]
- % Mean Fluoresence [1, 3]: 100%
- % Mean Fluoresence [1, 4]: 100%
- % Mean Fluoresence [1, 5]: 100%
- % Mean Fluoresence [1, 6]: 70.4%
- % Mean Fluoresence [1, 7]: 82.2%
- % Mean Fluoresence [1, 8]: 77.7%
- % Mean Fluoresence [1, 9]: 54.3%
- % Mean Fluoresence [1, 10]: 54.5%
- % Mean Fluoresence [1, 11]: 58.1%
- % Mean Fluoresence [1, 12]: 20.6%
- % Mean Fluoresence [1, 13]: 25.6%
- % Mean Fluoresence [1, 14]: 22%
- stability of the HLA-A*24:02-peptide complex (in words) [1]: identical to that of the HLA-A*24:02-S-QI9 peptide complex
- sensitivity of S-QI9-specific T cells for the peptide compared with the SARS-CoV-2 S-QI9 epitope (in words) [2]: higher sensitivity
- number of S-QI9-specific T cell populations that effectively recognized the peptide [2]: 13
- MFI, HLA-A2402 (APC), representative staining (HLA-A*24:02; [15]): 45.9
- affinity for HLA-A*24:02, times weaker than that of S-QI9 (HLA-A*24:02): 10–30 times
